Assay results published in PubChem BioAssay AID2060504 (Molecular Pharmacology Branch, DTP, NCI, 2025).

Test system: 636577-100-R-J1-PDC complex spheroid viability
Experiment: Anticancer human tumor 636577-100-R-J1-PDC patient-derived endometrial adenocarcinoma cell line growth inhibition [GQUAD]
Details: for IC50: curve of first compound; for viability, T/C: stronger effect = lower value; active = viability on the fitted dose curve at most 10% of control; inactive = the rest
Procedure, shortened: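 Viability of tumor cells grown as complex spheroids with endothelial and stromal cells, exposed to drug combinations. Top concentration at or near clinical Cmax (else 10 microM), diluted in half-log increments.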

[1] = second compound 0.0316 µM, first compound 0.0316 µM
[2] = second compound 0.0316 µM, first compound 0.1 µM
[3] = second compound 0.0316 µM, first compound 0.316 µM
[4] = second compound 0.0316 µM, first compound 1 µM
[5] = second compound 0.0316 µM, first compound 3.16 µM
[6] = second compound 0.0316 µM, first compound 10 µM
[7] = second compound 0.1 µM, first compound 0.0316 µM
[8] = second compound 0.1 µM, first compound 0.1 µM
[9] = second compound 0.1 µM, first compound 0.316 µM
[10] = second compound 0.1 µM, first compound 1 µM
[11] = second compound 0.1 µM, first compound 3.16 µM
[12] = second compound 0.1 µM, first compound 10 µM
[13] = second compound 0.316 µM, first compound 0.0316 µM
[14] = second compound 0.316 µM, first compound 0.1 µM
[15] = second compound 0.316 µM, first compound 0.316 µM
[16] = second compound 0.316 µM, first compound 1 µM
[17] = second compound 0.316 µM, first compound 3.16 µM
[18] = second compound 0.316 µM, first compound 10 µM
[19] = second compound 1 µM, first compound 0.0316 µM
[20] = second compound 1 µM, first compound 0.1 µM
[21] = second compound 1 µM, first compound 0.316 µM
[22] = second compound 1 µM, first compound 1 µM
[23] = second compound 1 µM, first compound 3.16 µM
[24] = second compound 1 µM, first compound 10 µM
[25] = second compound 3.16 µM, first compound 0.0316 µM
[26] = second compound 3.16 µM, first compound 0.1 µM
[27] = second compound 3.16 µM, first compound 0.316 µM
[28] = second compound 3.16 µM, first compound 1 µM
[29] = second compound 3.16 µM, first compound 3.16 µM
[30] = second compound 3.16 µM, first compound 10 µM
[31] = second compound 10 µM, first compound 0.0316 µM
[32] = second compound 10 µM, first compound 0.1 µM
[33] = second compound 10 µM, first compound 0.316 µM
[34] = second compound 10 µM, first compound 1 µM
[35] = second compound 10 µM, first compound 3.16 µM
[36] = second compound 10 µM, first compound 10 µM
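Note: viability read after seven days of drug exposure.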
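Throughout, for viability, T/C: luminescence signal used as a proxy for viable cells; 100% = DMSO vehicle control wells.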

CCCS(=O)(=O)Nc1ccc(F)c(C(=O)c2c[nH]c3ncc(-c4ccc(Cl)cc4)cc23)c1F + CN(C)c1ccc(Nc2c3ccc(NC(=O)CCN4CCCC4)cc3nc3cc(NC(=O)CCN4CCCC4)ccc23)cc1
6630 nM: IC50 (second compound 0.316 µM)
inactive: viability, T/C [1] 101% | viability, T/C [2] 98.1% | viability, T/C [3] 118% | viability, T/C [4] 59.4% | viability, T/C [5] 87.2% | viability, T/C [6] 35.4% | viability, T/C [7] 96.4% | viability, T/C [8] 79.3% | viability, T/C [9] 89.1% | viability, T/C [10] 73.1% | viability, T/C [11] 80.4% | viability, T/C [12] 32.8% | viability, T/C [13] 82.4% | viability, T/C [14] 83% | viability, T/C [15] 80.2% | viability, T/C [16] 69.2% | viability, T/C [17] 74.9% | viability, T/C [18] 37.6% | viability, T/C [19] 79.3% | viability, T/C [20] 69.8% | viability, T/C [21] 78.9% | viability, T/C [22] 89.8% | viability, T/C [23] 77.7% | viability, T/C [24] 34.5% | viability, T/C [25] 35.7% | viability, T/C [26] 47.9% | viability, T/C [27] 47.1% | viability, T/C [28] 43% | viability, T/C [29] 40.6% | viability, T/C [30] 18.5%
active: viability, T/C [31] 5.58% | viability, T/C [32] 6.42% | viability, T/C [33] 6.13% | viability, T/C [34] 6.09% | viability, T/C [35] 4.83% | viability, T/C [36] 1.82%
6620 nM: IC50 (second compound 1 µM)
6470 nM: IC50 (second compound 0.1 µM)
< 31.6 nM: IC50 (second compound 3.16 µM) | IC50 (second compound 10 µM)
6700 nM: IC50 (second compound 0.0316 µM)

O=C(NO)c1cnc(N2CCN(S(=O)(=O)c3ccc4ccccc4c3)CC2)nc1 + Cc1[nH]c2ccc(F)cc2c1-c1nc2c3cccnc3c3ncccc3c2[nH]1
57.7 nM: IC50 (second compound 0.1 µM)
active: viability, T/C [3] 11.5% | viability, T/C [4] 7.28% | viability, T/C [5] 0.23% | viability, T/C [6] 0.1% | viability, T/C [10] 5.55% | viability, T/C [11] 0.5% | viability, T/C [12] 0.09% | viability, T/C [16] 7.41% | viability, T/C [17] 1% | viability, T/C [18] 0.08% | viability, T/C [22] 6.03% | viability, T/C [23] 1.47% | viability, T/C [24] 0.08% | viability, T/C [28] 7.07% | viability, T/C [29] 2.05% | viability, T/C [30] 0.09% | viability, T/C [34] 6.09% | viability, T/C [35] 2.61% | viability, T/C [36] 0.11%
inactive: viability, T/C [1] 69.7% | viability, T/C [2] 21.1% | viability, T/C [7] 68.2% | viability, T/C [8] 33.2% | viability, T/C [9] 15.2% | viability, T/C [13] 60.2% | viability, T/C [14] 31.4% | viability, T/C [15] 17.2% | viability, T/C [19] 60.2% | viability, T/C [20] 29% | viability, T/C [21] 16.6% | viability, T/C [25] 25.8% | viability, T/C [26] 19.7% | viability, T/C [27] 17.1% | viability, T/C [31] 29.5% | viability, T/C [32] 22.4% | viability, T/C [33] 14.3%
51.2 nM: IC50 (second compound 0.0316 µM)
46.3 nM: IC50 (second compound 1 µM)
< 31.6 nM: IC50 (second compound 3.16 µM) | IC50 (second compound 10 µM)
47.6 nM: IC50 (second compound 0.316 µM)

Nc1ccn(C2OC(CO)C(O)C2(F)F)c(=O)n1 (stereo unspecified) + Cc1cnc(CNC(=O)c2c(=O)c3ccc(N4CCCN(C)CC4)nc3n3c2sc2ccccc23)cn1
inactive: viability, T/C [1] 15.9% | viability, T/C [2] 13.3% | viability, T/C [3] 15% | viability, T/C [4] 12.4% | viability, T/C [5] 13.6% | viability, T/C [6] 12.1% | viability, T/C [7] 17.9% | viability, T/C [8] 13.8% | viability, T/C [9] 16.3% | viability, T/C [10] 13.3% | viability, T/C [11] 16.2% | viability, T/C [12] 14.6% | viability, T/C [13] 17.6% | viability, T/C [14] 15.1% | viability, T/C [15] 16.5% | viability, T/C [16] 15.2% | viability, T/C [17] 16.3% | viability, T/C [18] 13.9% | viability, T/C [19] 14.7% | viability, T/C [20] 14.8% | viability, T/C [21] 16.6% | viability, T/C [22] 17.5% | viability, T/C [23] 16.6% | viability, T/C [24] 15.3% | viability, T/C [25] 15.4% | viability, T/C [26] 16.5% | viability, T/C [27] 17.9% | viability, T/C [28] 17.7% | viability, T/C [29] 17.6% | viability, T/C [30] 12.7% | viability, T/C [31] 18.2% | viability, T/C [32] 13.8% | viability, T/C [33] 18.1% | viability, T/C [34] 16.4% | viability, T/C [35] 16.3% | viability, T/C [36] 13.5%
< 31.6 nM: IC50 (second compound 0.0316 µM) | IC50 (second compound 0.1 µM) | IC50 (second compound 0.316 µM) | IC50 (second compound 1 µM) | IC50 (second compound 3.16 µM) | IC50 (second compound 10 µM)
